Source: US9155726B2, “Method of treatment using checkpoint kinase 1 inhibitors” (ARRAY BIOPHARMA INC., priority 2009, dated 2015)
Where two headings read alike, the source gives them in different places.

What was measured:
[1] = tested on: subcutaneous HT-29 xenografts; assay: TGI/tolerability experiment, CPT11 with simultaneous or 24 hour delayed Compound 1 (Example 3); type: in vivo, nude mice; conditions: single agents: CPT11 100 mg/kg IP single dose; Compound 1 50 mg/kg PO BID 3 days
Procedure: Female nude mice were inoculated subcutaneously with 5×10^6 HT-29 tumor cells in 1×PBS (100 μL). Twelve days later, mice were randomized into groups of 6 with an average tumor volume in each group of approximately 250 mm^3. […] Tumor size and animal body weight were measured over the course of the study on the days indicated with data points in FIG. 5. Tumor volume was calculated using the formula: volume=(width^2×length)/2.

[2] = Tolerability of CPT11 with Compound 2 started 12, 24 or 48 hours post CPT11 (Example 4); type: in vivo, nude mice; conditions: single agents: CPT11 100 mg/kg IP Q10Dx2; Compound 2 25 mg/kg PO BID 3 days per cycle; naive mice
[3] = tested on: subcutaneous HT-29 xenografts; conditions: mouse, in vivo, ip, 100 mg/kg
Procedure: Female nude mice were inoculated subcutaneously with 5×10^6 HT-29 tumor cells in 1×PBS (100 μL). Fourteen days later, mice were randomized into groups of 8 with an average tumor volume in each group of approximately 260 mm^3. […] Tumor size and animal body weight were measured over the course of the study on the days indicated with data points in FIG. 12. Tumor volume was calculated using the formula: volume=(width^2×length)/2.

[4] = tested on: subcutaneous HT-29 xenografts; assay: TGI experiment, CPT11 with Compound 5 (Example 12); type: in vivo
Procedure: Female nude mice were inoculated subcutaneously with 4×10^6 HT-29 tumor cells in 1×PBS (100 μL). Twelve days later, mice were randomized into groups of 7 with an average tumor volume in each group of approximately 200 mm^3. […] Tumor size and animal body weight were measured over the course of the study on the days indicated with data points in FIG. 13. Tumor volume was calculated using the formula: volume=(width^2×length)/2. No mortalities occurred over the course of this study.

Phosphorylation of cdc2 [5] = assay: Inhibition of CPT11 induced phosphorylation of cdc2 in HT-29 tumors, immunoblot (Example 6); type: in vivo, nude mice; conditions: 3 consecutive days BID versus single dose, 25 mg/kg PO, from 24 hours after CPT11 100 mg/kg
Procedure: Female nude mice were inoculated subcutaneously with 5×10^6 HT-29 tumor cells in 1×PBS (100 μL). Twenty four days later, mice were randomized into groups of 3 with an average tumor volume in each group of approximately 450 mm^3. […] Compound 2 was given as a single dose, or alternatively for 3 consecutive days on a BID schedule. All tumors from animals dosed with Compound 2 were harvested 2 hours post dose. Phosphorylation of cdc2 was assessed by immunoblot and normalized to total ERK expression. Results are expressed as POC.

[6] = tested on: subcutaneous HT-29 xenografts; assay: TGI experiment, CPT11 with Compound 2 for 1 or 3 days (Example 5); type: in vivo; conditions: single agents: CPT11 100 mg/kg IP Q10Dx2; Compound 2 25 mg/kg PO BID
Procedure: Female nude mice were inoculated subcutaneously with 5×10^6 HT-29 tumor cells in 1×PBS (100 μL). Twelve days later, mice were randomized into groups of 8 with an average tumor volume in each group of approximately 215 mm^3. […] Tumor size and animal body weight were measured over the course of the study on the days indicated with data points in FIG. 6. Tumor volume was calculated using the formula: volume=(width^2×length)/2. No mortalities occurred over the course of this study.

[7] = Compound 2 exposure after single dose or 3 days dosing (Example 6); type: in vivo, nude mice; conditions: 25 mg/kg PO, from 24 hours after CPT11 100 mg/kg; t-test>0.05
Phosphorylation of cdc2 [8] = assay: Inhibition of CPT11 induced phosphorylation of cdc2 in HT-29 tumors, immunoblot (Example 7); type: in vivo, nude mice; conditions: 5, 10 or 25 mg/kg PO BID 3 consecutive days from 24 hours after CPT11 100 mg/kg; HT-29 tumors harvested 96 hours post CPT11
Procedure: Female nude mice were inoculated subcutaneously with 5×10^6 HT-29 tumor cells in 1×PBS (100 μL). Twenty nine days later, mice were randomized into groups of 3 with an average tumor volume in each group of approximately 500 mm^3. […] Compound 5 was given as a single dose at 25 mg/kg, or alternatively 5, 10, or 25 mg/kg doses were given for 3 consecutive days on BID schedules. […] Phosphorylation of cdc2 was assessed by immunoblot and normalized to total ERK expression. Results are expressed as POC.

[9] = single agents: CPT11 100 mg/kg IP Q10Dx2, Compound 5 PO BID (dose of single-agent group not given)

For `CCc1c2c(nc3ccc(OC(=O)N4CCC(N5CCCCC5)CC4)cc13)-c1cc3c(c(=O)n1C2)COC(=O)[C@]3(O)CC` [CPT11, irinotecan], the “% Mortality” value [1] was 0%, the “% Mortality” value [2] was 0% and the “Day of Maximum % Body Weight Loss” value [2] was 14 days. The “Maximum % Body Weight Loss” value [2] was 3.4%, the “Maximum % Body Weight Loss” value [3] was 0.08% and the “Day of Maximum % Body Weight Loss” value ([4]; mouse, in vivo, 100 mg/kg) was 18 days. The “Maximum % Body Weight Loss” value ([4]; mouse, in vivo, 100 mg/kg) was 6.3%.
For `N[C@@H]1CCCN(c2c(Br)cnc3[nH]cc(NC(=O)c4cccnc4)c23)C1` [Compound 1, (R)—N-(4-(3-aminopiperidin-1-yl)-5-bromo-1H-pyrrolo[2,3-b]pyridin-3-yl)nicotinamide], the “Inhibition of CPT11 induced phospho-cdc2 with extended dosing” value (Phosphorylation of cdc2 [5]) was “Superior Inhibition”.
With `CC(C)C(=O)Nc1c[nH]c2ncc(Br)c(N3CCC[C@@H](N)C3)c12` [Compound 2, (R)—N-(4-(3-aminopiperidin-1-yl)-5-bromo-1H-pyrrolo[2,3-b]pyridin-3-yl)isobutyramide] the “Day of Maximum % Body Weight Loss” value [2] was 17 days, the “Maximum % Body Weight Loss” value [2] was 0.3% and the “Day of Maximum % Body Weight Loss” value [6] was 3 days. The “Maximum % Body Weight Loss” value [6] was 7.2% and the “Compound 2 exposure, single dose versus administration for 3 days” value [7] was “not statistically different”.
With `N[C@@H]1CCCN(c2c(Br)cnc3[nH]cc(NC(=O)C4CC4)c23)C1` [Compound 5, (R)—N-(4-(3-aminopiperidin-1-yl)-5-bromo-1H-pyrrolo[2,3-b]pyridin-3-yl)cyclopropanecarboxamide] the “Day of Maximum % Body Weight Loss” value [4, 9] was 18 days, the “Maximum % Body Weight Loss” value [4, 9] was 2.5% and the “Inhibition of CPT11 induced phospho-cdc2 with extended dosing” value (Phosphorylation of cdc2 [8]) was “Dose-Related Inhibition”.
